The text below walks through data of ChEMBL document CHEMBL4376809, “Discovery of a Potent and Selective Fragment-like Inhibitor of Methyllysine Reader Protein Spindlin 1 (SPIN1)” (J Med Chem, 2019).

Activity calls are given as the source filed them. The calls are words filed in the database; no cut-off is given here. Non-standard residues stand in square brackets, D forms with d. Residues, ends and D or L forms follow the SMILES beside them. *: point of attachment. Benzoyl(4-tBu) = CC(C)(C)c1ccc(C(=O)*)cc1; Lys(Et2) = CCN(CC)CCCC[C@H](N)C(=O)O

The species entered for series [1] is Homo sapiens. Put plainly: Inhibition of human MLL1/RBBP5/WDR5 trimeric complex up to 50 uM using Biot-H3 (1-25) as substrate and in presence of [3H]-SAM incubated for 1 hr by scintillation proximity assay.
For another series, the system named is HEK-293T. The series can be described thus: Cytotoxicity against human 293T cells assessed as reduction in cell viability up to 30 uM incubated for 6 days by resazurin dye based fluorescence assay. The note with it: 144 h.
The target in another series is Spindlin-2B (Homo sapiens, UniProt Q9BPZ2). The series can be described thus: Inhibition of recombinant human N-terminal His6-tagged SPIN2B (45 to 258 residues) expressed in Escherichia coli BL21 (DE3) cells assessed as dissociation constant by isothermal titration calorimetry.
The target of series [2] is Histone-lysine N-methyltransferase EHMT1/EHMT2 (Homo sapiens) (UniProt Q9H9B1+Q96KQ7). Put plainly: Inhibition of human G9a catalytic domain/GLP catalytic domain in presence of SAM assessed as dissociation constant by isothermal calorimetry assay. Type of series: protein assay.
The species entered for series [3] is Homo sapiens. The series can be described thus: Inhibition of human MLL3/ASH2L/RBBP5/WDR5/DPY30 pentameric complex up to 50 uM using Biot-H3 (1-25) as substrate and in presence of [3H]-SAM incubated for 1 hr by scintillation proximity assay. For orientation: In a scintillation proximity assay essentially only radioactivity close to the scintillant gives light.

In the next series the test system is C2C12. Put plainly: Cytotoxicity against mouse C2C12 cells assessed as reduction in cell viability up to 30 uM incubated for 6 days by resazurin dye based fluorescence assay. The note with it: c2c12, 144 h. (In general: Resazurin is reduced to fluorescent resorufin, in cell work by metabolically active cells.)
The species named for series [4] is Homo sapiens. Put plainly: Binding affinity to JARID1 (unknown origin) assessed as induction of thermal shifts at 20 uM measured for 25 mins by SYPRO orange dye thermal shift assay.
The next series addresses Spindlin-3 (Homo sapiens, UniProt Q5JUX0). The series can be described thus: Inhibition of recombinant human N-terminal His6-tagged SPIN3 (27 to 258 residues) expressed in Escherichia coli BL21 (DE3) cells assessed as dissociation constant by isothermal titration calorimetry. A general note: ITC needs no label: the signal is the heat of the interaction.
Another series deals with T1, Spindlin-4 (Homo sapiens, UniProt Q56A73).
T1 sequence (Q56A73 whole entry): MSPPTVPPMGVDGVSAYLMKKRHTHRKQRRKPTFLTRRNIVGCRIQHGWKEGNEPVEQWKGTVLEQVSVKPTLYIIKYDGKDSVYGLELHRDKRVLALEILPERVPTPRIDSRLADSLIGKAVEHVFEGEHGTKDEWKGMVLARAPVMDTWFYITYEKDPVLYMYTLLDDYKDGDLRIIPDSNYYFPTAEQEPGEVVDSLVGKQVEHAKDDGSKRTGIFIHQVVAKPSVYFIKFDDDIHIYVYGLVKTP
Put plainly: Inhibition of recombinant human N-terminal His6-tagged SPIN4 (36 to 249 residues) expressed in Escherichia coli BL21 (DE3) cells assessed as dissociation constant by isothermal titration calorimetry.

For the next series, the system named is HFF-1. The series can be described thus: Cytotoxicity against human HFF1 cells assessed as reduction in cell viability up to 30 uM incubated for 6 days by resazurin dye based fluorescence assay. The note with it: hff-1, 144 h.
Series [5] addresses T2, Spindlin-1 (Homo sapiens, UniProt Q9Y657).
Series [6] has as its target T2, Spindlin-1. This is another data set of the same source.
In series [7] the target is T2, Spindlin-1. This is another data set of the same source.
For series [8], the target named is T3, E3 SUMO-protein ligase CBX4 (Homo sapiens, UniProt O00257).
T3 sequence (O00257 whole entry): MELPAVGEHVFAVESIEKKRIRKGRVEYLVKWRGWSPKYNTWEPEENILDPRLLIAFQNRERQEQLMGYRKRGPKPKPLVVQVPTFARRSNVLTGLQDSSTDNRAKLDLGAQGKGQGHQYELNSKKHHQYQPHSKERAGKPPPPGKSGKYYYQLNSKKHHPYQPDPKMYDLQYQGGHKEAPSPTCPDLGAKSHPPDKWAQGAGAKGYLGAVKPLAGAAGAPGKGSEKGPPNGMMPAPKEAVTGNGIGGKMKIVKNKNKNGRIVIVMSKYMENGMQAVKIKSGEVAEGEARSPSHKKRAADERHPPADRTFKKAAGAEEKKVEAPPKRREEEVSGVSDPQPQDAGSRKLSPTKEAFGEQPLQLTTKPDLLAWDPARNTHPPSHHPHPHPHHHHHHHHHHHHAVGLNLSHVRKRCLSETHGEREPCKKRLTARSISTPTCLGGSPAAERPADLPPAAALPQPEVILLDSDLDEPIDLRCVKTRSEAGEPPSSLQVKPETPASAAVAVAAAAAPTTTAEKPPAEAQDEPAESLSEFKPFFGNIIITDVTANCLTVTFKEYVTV
Put plainly: Inhibition of CBX4 (unknown origin) assessed as dissociation constant by isothermal titration calorimetry.

Series [9] concerns the target T4, Chromobox protein homolog 7 (Homo sapiens, UniProt O95931).
T4 sequence (O95931 whole entry): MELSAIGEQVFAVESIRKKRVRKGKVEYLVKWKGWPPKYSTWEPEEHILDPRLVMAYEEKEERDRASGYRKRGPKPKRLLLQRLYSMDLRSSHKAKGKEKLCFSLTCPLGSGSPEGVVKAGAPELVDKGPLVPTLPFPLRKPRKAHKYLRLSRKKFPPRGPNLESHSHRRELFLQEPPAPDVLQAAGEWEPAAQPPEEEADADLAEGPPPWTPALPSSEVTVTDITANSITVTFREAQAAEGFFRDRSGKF
The series can be described thus: Inhibition of CBX7 (unknown origin) assessed as dissociation constant by isothermal titration calorimetry.

The target of series [10] is T2, Spindlin-1. The series can be described thus: biochemical.
For series [11], the target named is T2, Spindlin-1. Put plainly: biochemical. This is another data set of the same source.

As usually defined, the Kd is a measure of binding affinity in units of concentration. Usually IC50 stands for the midpoint of a concentration-inhibition curve. Low readings indicate higher potency, high ones lower potency.

T2 sequence (Q9Y657 whole entry): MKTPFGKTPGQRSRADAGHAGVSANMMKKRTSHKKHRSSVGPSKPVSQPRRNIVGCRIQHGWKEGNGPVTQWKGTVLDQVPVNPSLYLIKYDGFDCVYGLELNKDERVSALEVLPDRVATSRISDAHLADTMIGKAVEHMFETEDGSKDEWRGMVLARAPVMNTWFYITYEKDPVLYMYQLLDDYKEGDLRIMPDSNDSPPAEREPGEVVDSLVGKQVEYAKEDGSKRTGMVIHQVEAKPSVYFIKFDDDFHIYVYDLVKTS
Sequence of Histone-lysine N-methyltransferase EHMT1/EHMT2 (Homo sapiens) (Q96KQ7 whole entry, looked up, the tested form may be a part): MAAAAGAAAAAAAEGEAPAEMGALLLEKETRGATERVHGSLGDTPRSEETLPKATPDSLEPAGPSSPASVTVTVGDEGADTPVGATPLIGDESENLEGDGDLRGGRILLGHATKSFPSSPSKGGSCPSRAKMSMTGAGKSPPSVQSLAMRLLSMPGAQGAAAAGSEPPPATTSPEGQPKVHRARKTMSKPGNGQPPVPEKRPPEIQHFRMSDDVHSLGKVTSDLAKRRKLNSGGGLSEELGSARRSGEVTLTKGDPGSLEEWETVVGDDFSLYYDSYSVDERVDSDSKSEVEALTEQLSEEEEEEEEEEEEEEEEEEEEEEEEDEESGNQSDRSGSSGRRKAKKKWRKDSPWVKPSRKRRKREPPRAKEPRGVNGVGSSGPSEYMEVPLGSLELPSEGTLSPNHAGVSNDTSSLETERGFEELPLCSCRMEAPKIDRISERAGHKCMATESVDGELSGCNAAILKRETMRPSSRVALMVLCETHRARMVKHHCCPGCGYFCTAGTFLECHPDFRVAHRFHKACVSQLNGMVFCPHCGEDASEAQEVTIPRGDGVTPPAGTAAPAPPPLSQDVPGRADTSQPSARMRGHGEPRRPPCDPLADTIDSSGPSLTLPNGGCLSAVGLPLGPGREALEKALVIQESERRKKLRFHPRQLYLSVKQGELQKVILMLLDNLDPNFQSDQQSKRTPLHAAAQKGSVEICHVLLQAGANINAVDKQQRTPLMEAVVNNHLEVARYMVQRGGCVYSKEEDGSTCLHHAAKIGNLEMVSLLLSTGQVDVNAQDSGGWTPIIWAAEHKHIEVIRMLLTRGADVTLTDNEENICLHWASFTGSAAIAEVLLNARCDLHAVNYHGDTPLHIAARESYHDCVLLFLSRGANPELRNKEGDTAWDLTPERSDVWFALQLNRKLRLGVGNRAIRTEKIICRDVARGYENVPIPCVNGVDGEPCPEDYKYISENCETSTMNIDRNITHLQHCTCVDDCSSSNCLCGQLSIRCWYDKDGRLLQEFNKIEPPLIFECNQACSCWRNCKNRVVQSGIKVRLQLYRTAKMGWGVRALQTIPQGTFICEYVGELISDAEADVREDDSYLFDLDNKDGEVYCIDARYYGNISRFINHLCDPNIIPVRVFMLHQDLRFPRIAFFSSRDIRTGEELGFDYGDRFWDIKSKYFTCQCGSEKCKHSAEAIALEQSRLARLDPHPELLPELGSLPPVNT
Sequence of Histone-lysine N-methyltransferase EHMT1/EHMT2 (Homo sapiens) (Q9H9B1 whole entry, looked up, the tested form may be a part): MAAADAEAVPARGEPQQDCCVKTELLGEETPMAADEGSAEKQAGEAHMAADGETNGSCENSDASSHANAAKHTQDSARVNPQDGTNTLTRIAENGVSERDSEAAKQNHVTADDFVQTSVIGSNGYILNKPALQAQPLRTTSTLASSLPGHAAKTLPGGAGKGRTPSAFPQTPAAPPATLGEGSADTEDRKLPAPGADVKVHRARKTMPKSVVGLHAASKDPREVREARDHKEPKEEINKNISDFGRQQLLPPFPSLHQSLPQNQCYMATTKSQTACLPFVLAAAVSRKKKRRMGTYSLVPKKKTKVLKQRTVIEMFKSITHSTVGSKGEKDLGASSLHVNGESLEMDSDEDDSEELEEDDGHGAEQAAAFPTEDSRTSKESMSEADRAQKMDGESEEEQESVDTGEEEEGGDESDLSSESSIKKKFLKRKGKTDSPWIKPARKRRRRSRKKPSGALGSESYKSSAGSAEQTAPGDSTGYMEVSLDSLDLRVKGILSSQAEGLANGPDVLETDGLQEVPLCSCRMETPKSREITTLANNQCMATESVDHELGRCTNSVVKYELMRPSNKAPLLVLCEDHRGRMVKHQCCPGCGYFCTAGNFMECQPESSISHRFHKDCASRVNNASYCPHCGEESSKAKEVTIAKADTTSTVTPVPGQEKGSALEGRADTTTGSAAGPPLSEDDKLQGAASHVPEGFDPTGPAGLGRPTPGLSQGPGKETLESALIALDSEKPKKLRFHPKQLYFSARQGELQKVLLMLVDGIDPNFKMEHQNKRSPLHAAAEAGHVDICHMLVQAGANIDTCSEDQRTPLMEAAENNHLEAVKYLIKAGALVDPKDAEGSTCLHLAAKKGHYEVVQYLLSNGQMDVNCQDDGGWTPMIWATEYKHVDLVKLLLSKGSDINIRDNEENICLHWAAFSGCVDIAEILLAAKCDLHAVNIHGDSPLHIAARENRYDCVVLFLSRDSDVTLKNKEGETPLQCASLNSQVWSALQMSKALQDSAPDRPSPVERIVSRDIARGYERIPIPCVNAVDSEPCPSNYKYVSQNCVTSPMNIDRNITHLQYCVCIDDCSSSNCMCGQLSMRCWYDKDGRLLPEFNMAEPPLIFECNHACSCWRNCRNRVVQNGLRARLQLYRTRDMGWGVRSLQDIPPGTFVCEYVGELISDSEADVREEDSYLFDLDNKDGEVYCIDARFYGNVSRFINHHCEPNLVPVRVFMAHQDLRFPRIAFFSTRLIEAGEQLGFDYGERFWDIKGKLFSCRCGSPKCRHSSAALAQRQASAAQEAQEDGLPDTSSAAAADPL
Sequence of Spindlin-2B (Q9BPZ2 whole entry, the tested form may be a part): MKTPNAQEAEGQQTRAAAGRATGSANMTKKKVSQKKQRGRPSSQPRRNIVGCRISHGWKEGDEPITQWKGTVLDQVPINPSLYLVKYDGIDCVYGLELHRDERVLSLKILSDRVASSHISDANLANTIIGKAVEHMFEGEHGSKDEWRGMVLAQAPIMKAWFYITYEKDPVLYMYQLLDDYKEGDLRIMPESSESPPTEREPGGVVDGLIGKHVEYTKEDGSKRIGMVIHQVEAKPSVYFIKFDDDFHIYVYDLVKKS
Sequence of Spindlin-3 (Q5JUX0 whole entry, the tested form may be a part): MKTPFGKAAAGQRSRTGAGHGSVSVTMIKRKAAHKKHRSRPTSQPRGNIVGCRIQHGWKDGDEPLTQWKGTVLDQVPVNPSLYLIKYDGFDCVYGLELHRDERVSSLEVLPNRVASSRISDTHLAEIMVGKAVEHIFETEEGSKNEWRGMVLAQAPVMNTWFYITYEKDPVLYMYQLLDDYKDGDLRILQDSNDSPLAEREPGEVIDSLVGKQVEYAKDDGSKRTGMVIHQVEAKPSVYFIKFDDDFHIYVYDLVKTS

Take `COc1c(CN)cc(CN)cc1OCCCN1Cc2ccccc2C1`: the inhibition result (in the series listed under Homo sapiens [1]; in [2]; in the series filed under Homo sapiens [3]) was “inactive” each time. Also, the Activity entry with HEK-293T, in the series on C2C12 and with HFF-1 was “Non-Toxic” throughout. The Kd at Spindlin-2B, at Spindlin-3 and on Spindlin-4 was 170 to 1700 nM in each case. For the same compound, in the series listed under Homo sapiens [4], the outcome was inactive.
For `COc1c(CN)cc(C(N)=O)cc1OCCCN1Cc2ccccc2C1`, the IC50 result on Spindlin-1 [5] and at Spindlin-1 [6] was “Not Active” throughout. On Spindlin-1 [7], the Kd entry is given as “Not Active”.
Consider `CCN(CC)CCCC[C@H](NC(=O)[C@H](CC(C)C)NC(=O)[C@H](C)NC(=O)[C@H](C)NC(=O)c1ccc(C(C)(C)C)cc1)C(=O)N[C@@H](CO)C(=O)OC` ({Benzoyl(4-tBu)}-AAL[Lys(Et2)]S-OMe), for which the results for the Kd in series [8] and in [9] were 94 nM and 97 nM, respectively.
Regarding `COc1c(CN)cc(CN)cc1OCCCN1CCCC1`, the IC50 was 741 nM against Spindlin-1 [10] and 338 nM on Spindlin-1 [11]. Also, the inhibition result in series [2] was “inactive”. The Kd on Spindlin-1 [7] (read-out: Kd) was determined as 390 nM.
